# Key:
# [1] = system: XP490 TGs; assay: Tumorgraft growth in different hosts, mixed-model analysis, XP490; type: in vivo, mice
# Description: (§1) Tumor samples were collected from patients under IRB-approved protocol as previously described. 6-to-8-week-old NOD/SCID mice originally obtained from the UT Southwestern Breeding Core were implanted subcutaneously with patient-derived TGs. Calipers were used to measure tumor dimensions. Volume was calculated by multiplying width, length, and height, thereby minimizing the potential bias of disproportionately weighing one particular dimension (at the cost of overestimating tumor volumes). […] Tumors were measured weekly. […] In accordance with UT Southwestern Institutional Animal Care and Use Committee policies, animals were euthanized once tumor diameters were larger than 2 cm.
# Bar charts and series plots are presented as the mean±standard error of the mean (SEM) from more than three independent experiments. Unless otherwise indicated, the statistical significance was determined by t-test using GraphPad Prism. […] For the mixed model analysis, data were summarized as mean tumor growth per day with 95% confidence intervals, as well as by fold change between groups. A positive fold change indicates increased tumor growth rates in the first group compared to the second. Estimates were obtained from a three-way factorial mixed model analysis for treatment group, mouse type, and day of measurement. Baseline volume was also included as a term in the model to control for differences in starting volumes. An autoregressive (AR-1) covariance structure was used to account for the correlation among repeated measurements for each mouse. ANOVA and mixed model analyses were completed using SAS 9.4. A P-value <0.05 was considered significant.
# (§2) XP144, XP164 and XP490 were then implanted into NOD/SCID^mTOR-ST mice.
# A positive fold change indicates increased tumor growth rates in the first group. mTOR-WT, wild type mice; mTORST, heterozygous mTOR-ST mice; mTORST/ST, homozygous mTOR-ST mice.
# [2] = system: XP144 TGs; assay: Tumorgraft growth in different hosts, mixed-model analysis, XP144; type: in vivo, mice
# Description: as §1, with “weekly. As indicated, vehicle-treated tumors and rapamycin-sensitive tumors were harvested around 28 days.” for “weekly.”
# (§3) Bar charts and series plots are presented as the mean±standard error of the mean (SEM) from more than three independent experiments. Unless otherwise indicated, the statistical significance was determined by t-test using GraphPad Prism. For each XP line, ANOVA with post-hoc t-tests were used to test for differential (phospho)protein levels between the three arms in the RPPA analysis (vehicle-treated, rapamycin-sensitive, and rapamycin-resistant) with FDR-adjusted P-values. For the mixed model analysis, data were summarized as mean tumor growth per day with 95% confidence intervals, as well as by fold change between groups. A positive fold change indicates increased tumor growth rates in the first group compared to the second. Estimates were obtained from a three-way factorial mixed model analysis for treatment group, mouse type, and day of measurement. Baseline volume was also included as a term in the model to control for differences in starting volumes. An autoregressive (AR-1) covariance structure was used to account for the correlation among repeated measurements for each mouse. ANOVA and mixed model analyses were completed using SAS 9.4. A P-value <0.05 was considered significant.
# as §2
# (§4) The mTOR-ST mutation had the least effect on XP490. […] In Table 4, data are summarized with mean tumor growth rates per day (95% confidence intervals) with fold change between the two groups. A positive fold change indicates increased tumor growth rates in the first group. mTOR-WT, wild type mice; mTORST, heterozygous mTOR-ST mice; mTORST/ST, homozygous mTOR-ST mice. Rapa, rapamycin-treatment; Veh, vehicle-treatment
# [3] = following temsirolimus administration in patients; cited from earlier work
# [4] = system: XP164 TGs; assay: Tumorgraft growth in different hosts, mixed-model analysis, XP164; type: in vivo, mice
# Description: as §1, with “weekly. As indicated, vehicle-treated tumors and rapamycin-sensitive tumors were harvested around 28 days.” for “weekly.”
# as §3, §2, §4
smiles,measurement,setting,value
CO[C@H]1C[C@@H]2CC[C@@H](C)[C@@](O)(O2)C(=O)C(=O)N2CCCC[C@H]2C(=O)O[C@H]([C@H](C)C[C@@H]2CC[C@@H](O)[C@H](OC)C2)CC(=O)[C@H](C)/C=C(\C)[C@@H](O)[C@@H](OC)C(=O)[C@H](C)C[C@H](C)/C=C/C=C/C=C/1C [rapamycin],inhibition of tumor growth,"[1]; XP490, mTOR-ST homozygous mice",2 fold
same,Mean tumor growth per day (95% CI),"[1]; XP490, mTOR^ST (heterozygous) mice","15.0 (11.7, 18.3) vs."
same,Mean tumor growth per day (95% CI),"[1]; XP490, mTOR^WT mice","5.1 (1.1, 9.1) vs."
same,inhibition of tumor growth,"[1]; XP490, mice with the resistance mutation (heterozygous mTOR-ST)",6 fold
same,reduction of tumor growth,"[1]; XP490, wild-type mice, vs vehicle",11 fold
same,reduction of tumor growth inhibition in the resistant host,"[1]; third TG line, resistant host vs wild type",≤ 5 fold
same,effect on tumor growth,"[2]; XP144, NOD/SCID^mTOR-ST mice",no significant effect
same,Mean tumor growth per day (95% CI),"[2]; XP144, mTOR^ST (heterozygous) mice","54.6 (36.8, 72.4) vs."
same,Mean tumor growth per day (95% CI),"[2]; XP144, mTOR^WT mice, rapamycin 0.5 mg/kg IP every 48 hours","20.4 (10.5, 30.3) vs."
same,reduction of tumor growth,"[2]; XP144, wild-type mice, vs vehicle",1.5 fold
same,share of the circulating drug,[3],70%
same,effect on tumor growth,"[4]; XP164, NOD/SCID^mTOR-ST mice",no significant effect
same,Mean tumor growth per day (95% CI),"[4]; XP164, mTOR^ST (heterozygous) mice","67.6 (57.2, 78.0) vs."
same,Mean tumor growth per day (95% CI),"[4]; XP164, mTOR^ST/ST (homozygous) mice","69.5 (58.5, 80.6) vs."
same,Mean tumor growth per day (95% CI),"[4]; XP164, mTOR^WT mice","18.3 (12.6, 24.0) vs."
same,delay of tumor growth,"[4]; XP164, wild-type mice, vs vehicle",3.7 fold
